Data from patent publication US5624906A, “Oral hygiene compositions comprising heteroatom containing alkyl aldonamide compounds” (Lever Brothers Company, Division of Conopco, Inc., priority 1994, dated 1997).
Read-outs that look alike come from different tables or passages of the source.

Assays:
[1] = Krafft point; assay type: physicochemical; conditions: for Krafft Point (0.1%): 0.1% in water; for Krafft Point (1.0%): 1.0% in water
Protocol: The temperature at and above which surfactants begin to form micelles instead of precipitates is referred to as the Krafft point (Tk) and at this temperature the solubility of a surfactant becomes equal to its CMC (numerical value at which micelles are formed).
The Krafft point was measured by preparing 650 ml of a 0.1% or 1.0% dispersion of aldonamide in water by weight. If the surfactant was soluble at room temperature, the solution was slowly cooled to 0° C. […] (less than zero). If it precipitated out of solution, the temperature at which precipitation occurs was taken as the Krafft point.
If the surfactant was insoluble at room temperature, the dispersion was slowly heated until the solution became homogeneous. It was then slowly cooled until precipitation occurred. The temperature at which the surfactant precipitates out of solution upon cooling was taken as the Krafft point.

[2] = Clarity of prototype surfactant compositions (Example 87); assay type: physicochemical; conditions: room temperature; for Appearance: 6 months
Protocol: The prototype shampoo composition is as follows:
(§1) The above formulations were prepared by admixing the above ingredients in listed order and heating the mixture to about 80° C. with rapid stirring. The mixture was then cooled to about 40° C., placed in a clear jar and stored at room temperature for 6 months.

[3] = Ross-Miles foam height (Examples 81-84); assay type: physicochemical; conditions: 0.1% aldonamide, 40° C. (or 5-10° C. above Krafft point), 0 ppm hardness; for Foam Height Final: after 10 minutes
Protocol: (§2) In the Ross-Miles method, 200 mL of a surfactant solution contained in a pipette of specified dimensions with a 2.9-mm-i.d. orifice is allowed to fall 90 cm onto 50 mL of the same solution contained in a cylindrical vessel maintained at a given temperature by means of a water jacket. The height of the foam produced in the cylindrical vessel is read immediately after all the solution has run out of the pipette and then again after a given amount of time.
Using this method, the foam production (initial foam height in mm) and foam stability (final foam height after 10 minutes in mm) were measured at 0.1% aldonamide concentration, 40° C. and 0 ppm (parts per million) hardness.

[4] = Water solubility (statements); assay type: physicochemical
[5] = Critical micelle concentration, Wilhelmy plate method; assay type: physicochemical; conditions: 60 °C
Protocol: The critical micelie concentration (CMC) is defined as the concentration at which a surfactant forms micelles in aqueous solution. Micellization is the preferred interfacial phenomena, since certain surfactant benefits such as detergency (the solubilization of soils), foaming, wetting or emulsification depend on the formation of these aggregates in solution.
The CMC value of C8 /C10 oxypropyl D-gluconamide was determined by plotting surface tension as a function of log(concentration) and extrapolating linear points to obtain an intersection point. The concentration at this point was taken as the CMC. The technique used was the Wilhelmy plate method and the instrument used was a Lauda Auto-Tensiometer. While wishing not to be bound to theory, it is believed that surfactants with low CMC values form micelles more readily at lower concentrations than those with high CMC values.

[6] = Viscosity of sodium lauryl sulfate compositions (Example 88); assay type: physicochemical; conditions: for Viscosity: 22° C.
Protocol: The prototype surfactant composition is as follows:
as §1
It is well known that the viscosity of a liquid composition comprising of anionic surfactant can be modified by the addition of inorganic salts, such as sodium chloride. However, in the absence of an organic modifier, high levels of salt may be necessary to achieve the required viscosity which may lead to problems of storage at cold temperature or even salting out certain ingredients. In practice, however, the viscosity of a liquid composition is modified by the simultaneous addition of thickener and small amounts of inorganic salt (viscosity cobuilder). The combined effect is greater than either one alone. The viscosity of the above prototype surfactant composition comprising various amounts of heteroatom containing alkyl aldonamide compound is as follows: […]

[7] = cited from earlier work
[8] = cited from earlier work; remark: listed apart in the source
[9] = Effectiveness of adsorption (surface excess concentration, Gibbs equation); assay type: physicochemical; conditions: 60 °C, estimated by extrapolating a linear line
Excerpt: The surface excess concentration at surface saturation (Γmax) is defined as a measure of the effectiveness of surfactant adsorption at the water/air interface and represents the maximum value to which adsorption can be obtained. Effectiveness of adsorption is related to the interfacial area occupied by the surfactant molecule. The smaller the effective cross-sectional area of a surfactant at the interface, the greater its effectiveness of adsorption. The effectiveness of adsorption is an important factor in determining surfactant properties such as detergency, foaming, wetting or emulsification. While not wishing to be bound by theory, it is believed that surfactants that absorb effectively at the interface tend have tightly packed coherent interfacial films and often provide better surfactant benefits than those with loosely packed noncoherent films. The effectiveness of adsorption of C8 /C10 oxypropyl D-gluconamide was determined using the Gibbs equation given as: […]
(∂γ/∂log[Conc])T

[10] = Effectiveness in reducing surface tension (surface pressure at CMC); assay type: physicochemical; conditions: 60 °C, estimated by extrapolating a linear line
Excerpt: As mentioned before, surface tension reduction depends on the replacement of water molecules at the interface by surfactant molecules, therefore the effectiveness of a surfactant in reducing interfacial surface tension should reflect the saturated concentration of surfactant at the interface relative to that in bulk liquid phase. During this process the surface tension of water steadily decreases as bulk phase surfactant concentration increases. This will continue until the concentration reaches the critical micelle concentration (CMC), above which the surface tension remains nearly unchanged and the interface is saturated with surfactant. The surface tension at the CMC is therefore very close to the minimum interfacial tension or maximum surface pressure that the system can achieve. The surface pressure at this point, IIcmc, is a suitable measure of the effectiveness of a surfactant in reducing surface tension and is given as:
IIcmc =20+2.3nRT(Γmax) log[CMC/C20 ]
n=1 which represents the number of ions whose surface concentration changes with the change in liquid phase surfactant concentration.
CMC/C20 =is the ratio of the critical micelie concentration to the bulk phase surfactant concentration necessary to reduce the surface tension of water by 20 dyn/cm.

[11] = Foam stability and enhancement of sodium/ammonium lauryl sulfate, Ross-Miles (Example 86); assay type: physicochemical; conditions: 45° C., 4.0% foam stabilizer in sodium/ammonium lauryl sulfate composition
Protocol: The results were compared to identical compositions comprising petrochemically derived foam stabilizing agents, in particular, alkanolamides and alcohol ethoxylates. The prototype surfactant composition is as follows:
The compositions were prepared by admixing the ingredients in listed order with rapid stirring at 45--50° C. Foam stability and enhancement were measured at 0.1% based on sodium and ammonium lauryl sulfate (0.16% total solids) at 45° C. and 0 or 120 parts per million (ppm) hardness calcium:magnesium ion 2:1.

[12] = Foam stability and enhancement, Ross-Miles method (Example 85); assay type: physicochemical; conditions: triolein/calcium stearate 1 g/L, 10:90 mole % with C12 LAS, 35° C., read after 30 minutes
Protocol: The triolein/calcium stearate mixture was dispersed to the above solutions using a high speed shear mixer at 60° C. and then cooled to 35 ° C. The triolein/calcium stearate mixture represents an extreme type of antifoam behavior found in sebum soil.
as §2, with “read” for “read immediately”, “30 minutes” for “all the solution”, “elapsed.” for “run out of the pipette and then again after a given amount of time.”
The foam stability and enhancement of the heteroatom containing alkyl aldonamides was further determined using a 10:90 mole percent solution of C8 /C10 oxypropyl D-gluconamide (C8 C10 OPG): sodium dodecyl benzene sulfonate (C12 LAS) and compared to identical solutions of dodecyl D-gluconamide (C12 Gluc): sodium dodecyl benzene sulfonate in the presence and absence of the triolein/calcium stearate antifoam.

[13] = 5.0% in […] sodium lauryl sulfate
[14] = 3.0% in […] sodium lauryl sulfate

In the case of `CCCCCCCCCNC(=O)[C@H](O)[C@@H](O)[C@H](O)[C@H](O)CO` [C9 D-Gluconamide], the “Krafft Point (0.1%)” value [1] was 53 °C, the Appearance ([2]; 4.0% in […] sodium lauryl sulfate) was “Precipitate” and the “Appearance (Time): time of precipitate” value ([2]; 4.0%) was 2 weeks. The Appearance [2, 13] was “Precipitate”, the “Appearance (Time): time of precipitate” value ([2]; 5.0%) was 2 weeks and the “Foam Height Initial” value [3] was 0 mm. For the same molecule, the “Foam Height Final” value [3] was 0 mm.
With `CCCCCCCCCCNC(=O)[C@H](O)[C@@H](O)[C@H](O)[C@H](O)CO` [C10 D-Gluconamide] the “Krafft Point (0.1%)” value [1] was 75 °C, the Appearance [2, 14] was “Precipitate” and the Appearance [2, 13] was “Precipitate”. The “Foam Height Final” value [3] was 6 mm.
With `CCCCCCCCCCCCNC(=O)[C@H](O)[C@@H](O)[C@H](O)[C@H](O)CO` [C12 D-Gluconamide, dodecyl D-gluconamide] the “Krafft Point (0.1%)” value [1] was 91 °C, the “water solubility (in words)” value [4] was “insoluble in water” and the “CMC (in words)” value [5] was “None (Insoluble)”.
With `CCCCCCCCCCCCOCCCNC(=O)[C@H](O)[C@@H](O)[C@H](O)[C@H](O)CO` [C12 Oxypropyl D-Gluconamide] the “Krafft Point (0.1%)” value [1] was 61 °C, the Appearance [2, 14] was “Clear” and the Appearance [2, 13] was “Precipitate”. For the same molecule, the “Appearance (Time): time of precipitate” value ([2]; 5.0%) was 5 months, the “Viscosity Increase” value ([6]; 3.0% thickener) was 120 x and the Viscosity ([6]; 3.0% thickener) was 1800 Centipoise. The “Viscosity Increase” value ([6]; 5.0% thickener) was 1373 x, the Viscosity ([6]; 5.0% thickener) was 20600 Centipoise and the “Foam Height Initial” value [3] was 200 mm. For the same molecule, the “Foam Height Final” value [3] was 110 mm.
With `CCCCCCCCCCCCOCCCNC(=O)[C@H](O)[C@@H](O)[C@H](O[C@@H]1O[C@H](CO)[C@H](O)[C@H](O)[C@H]1O)[C@H](O)CO` [C12 Oxypropyl D-Lactobionamide, dodecyloxypropyl D-lactobionamide] the “Krafft Point (1.0%)” value [1] was under 0 °C, the “Viscosity Increase” value ([6]; 3.0% thickener) was 23 x and the Viscosity ([6]; 3.0% thickener) was 340 Centipoise. For the same molecule, the “Viscosity Increase” value ([6]; 5.0% thickener) was 97 x and the Viscosity ([6]; 5.0% thickener) was 1455 Centipoise.
For `CCCCCCCCCCCCOCCOCCOCCOCCOCCOCCOCCO` [Dodecylhepta(oxyethylene) Ether], the “Πcmc (surface pressure)” value ([7]; 25 °C) is given as 38.3 dyn/cm, the “Πcmc (surface pressure)” value ([7]; 40 °C) is given as 38.5 dyn/cm and the “Γmax (surface excess concentration at surface saturation)” value (“Γmax” for short) ([8]; 25 °C) is given as 2.90 × 10^-10 mole/cm^2. For the same molecule, the “Γmax” value ([8]; 40 °C) was 2.77 × 10^-10 mole/cm^2, the “Γmax” value [9] was 2.71 × 10^-10 mole/cm^2 and the “Πcmc (surface pressure)” value [10] was 36.8 dyn/cm.
In the case of `CCCCCCCCCCCCOCCOCCOCCOCCOCCO` [Dodecylpenta(oxyethylene) Ether], the CMC/C20 ([7]; 25 °C) is given as 15.0, the “Πcmc (surface pressure)” value ([7]; 25 °C) is given as 41.5 dyn/cm and the “Πcmc (surface pressure)” value ([7]; 40 °C) is given as 41.2 dyn/cm. The “Γmax” value ([8]; 25 °C) was 3.31 × 10^-10 mole/cm^2, the “Γmax” value ([8]; 40 °C) was 3.28 × 10^-10 mole/cm^2 and the “Γmax” value [9] was 3.16 × 10^-10 mole/cm^2. For the same molecule, the “Πcmc (surface pressure)” value [10] was 40.7 dyn/cm.
For `CCCCCCCCCCCCOCCOCCOCCOCCO` [Dodecyltetra(oxyethylene) Ether], the “Πcmc (surface pressure)” value ([7]; 25 °C) is given as 43.4 dyn/cm, the “Πcmc (surface pressure)” value ([7]; 40 °C) is given as 42.0 dyn/cm and the “Γmax” value ([8]; 25 °C) is given as 3.63 × 10^-10 mole/cm^2. For the same molecule, the “Γmax” value ([8]; 40 °C) was 3.41 × 10^-10 mole/cm^2, the “Γmax” value [9] was 3.01 × 10^-10 mole/cm^2 and the “Πcmc (surface pressure)” value [10] was 40.7 dyn/cm.
In the case of `CCCCCCCCCCCCOCCOCCOCCO` [Dodecyltri(oxyethylene) Ether], the “Πcmc (surface pressure)” value ([7]; 25 °C) is given as 44.1 dyn/cm, the “Πcmc (surface pressure)” value ([7]; 40 °C) is given as 43.1 dyn/cm and the “Γmax” value ([8]; 25 °C) is given as 3.98 × 10^-10 mole/cm^2. The “Γmax” value ([8]; 40 °C) was 3.90 × 10^-10 mole/cm^2, the “Γmax” value [9] was 3.83 × 10^-10 mole/cm^2 and the “Πcmc (surface pressure)” value [10] was 41.4 dyn/cm.
For `CCCCCCCCCCCC(=O)N(CCO)CCO` [Lauramide DEA, lauramide diethanolamine], the “Initial FH” value ([11]; 0 ppm hardness) was 190 mm.
For coco D-gluconamide, the Appearance [2, 14] was “Precipitate”, the “Appearance (Time): time of precipitate” value ([2]; 3.0%) was 1 days and the Appearance [2, 13] was “Precipitate”. The “Appearance (Time): time of precipitate” value ([2]; 5.0%) was 0.083 days.
In the case of “cocoamide monoethanolamine [Cocoamide MEA]”, the “Final FH after 60 Min.” value ([11]; 0 ppm hardness) was 70 mm and the “Final FH after 60 Min.” value ([11]; 120 ppm hardness) was 53 mm.
For cocoaminopropyl D-gluconamide, the “Krafft Point (0.1%)” value [1] was 18 °C, the Appearance [2, 14] was “Clear” and the Appearance [2, 13] was “Clear”. For the same molecule, the “Foam Height Initial” value [3] was 186 mm and the “Foam Height Final” value [3] was 182 mm.
With “octyl/decyloxypropyl D-lactobionamide [C8 /C10 Oxypropyl D-Lactobionamide]” the “Krafft Point (1.0%)” value [1] was under 0 °C, the Appearance [2, 14] was “Clear” and the Appearance [2, 13] was “Clear”. For the same molecule, the “Foam Height Initial” value [3] was 168 mm and the “Foam Height Final” value [3] was 158 mm.
With “octyl/decyloxypropyl D-ribonamide [C8 /C10 Oxypropyl D-Ribonamide]” the “Krafft Point (0.1%)” value [1] was 10 °C, the “Foam Height Initial” value [3] was 217 mm and the “Foam Height Final” value [3] was 200 mm.
With “sodium dodecyl benzene sulfonate [C12 LAS]” the “Foam Height, With Antifoam” value [12] was 61 mm.
